The source of these data is patent US12083139B2, “Use of IGF-2 receptor agonist ligands for treatment of Angelman Syndrome and autism” (New York University, priority 2018, dated 2024).

Like-named read-outs stand apart in the source and are kept apart here.

One experiment deals with WT (Control) mice. As to the kind of experiment: Novel object recognition (nOR) in WT mice. It counts as in vivo. The method, then:
(§1) FIG. 1. IGF-2 reverses most behavioral deficits observed in a mouse model of AS. Experimental timelines are shown above graphs. In all experiments mice received a s.c. injection of either vehicle or IGF-2 (↑) 20 min before either training or testing. All data are expressed as the mean±s.e.m. N=8-12 per group. Two-way analysis of variance (ANOVA) followed by Bonferroni post-hoc tests. *P<0.05, **P<0.01, ***P<0.001. (A) Percentage of time spent freezing before (Pre-US) or after (Post-US) the shock delivery during contextual fear conditioning training and at testing at 24 hours (h) after training (Test) of normal mice (wild type, WT), which served as controls and Ube3a−/+ mice (mouse model of AS, also referred to as mice) injected with vehicle or IGF-2. (B) Percent exploration preference for a novel object compared to a familiar object during novel object recognition of WT and Ube3a−/+ mice injected with vehicle or IGF-2, 20 min before training, tested at 4 h and 24 h after training. (C) Percent of correct alternations (% Correct) in a Y-maze of WT and Ube3a−/+ mice injected with vehicle or IGF-2 before testing (Test). (D) Latency to fall off from a rotating rod by WT and Ube3a−/+ mice injected with vehicle or IGF-2, 20 min before Test, and tested again 3 and 7 days later. (E) Time spent burying marbles by WT and Ube3a−/+ mice injected with vehicle or IGF-2, 20 min before Test. (F) Time spent in the center of an open field by WT and Ube3a−/+ mice following a vehicle or IGF-2 injection given 20 min before Test. The bars for each set from left to right are: WT Vehicle, WT IGF-2, Ube3a−/+ Vehicle, and Ube3a−/+ IGF-2.
(§2) FIG. 5. M6P reverses cognitive and motor deficits in AS mice. Experimental timelines are shown above graphs. In all experiments mice received a s.c. injection of either vehicle or 850 μg/Kg of M6P (IGF-2R.L1 or L1)(↑) 20 min before either training or testing. (A) Percent exploration preference for a novel object compared to a familiar object during the nOR paradigm of WT (Control) and Ube3a−/+(AS) mice injected with vehicle or IGF-2R.L1 20 min before training, and tested at 4 h and 24 h after training. N=4/group. Data are expressed as the mean±s.e.m. Two-way analysis of variance (ANOVA) followed by Bonferroni post-hoc tests. *P<0.05, **P<0.01, ***P<0.001. (B) Percent of correct alternations (% Correct) in a Y-maze of WT and AS mice injected with vehicle or M6P before testing (Test). Data are expressed as the mean (±s.e.m.). (C) Hindlimb clasping scores of WT and AS mice injected with vehicle or IGF-2R.L1, 20 min before Test. Hindlimb clasping scores are measured and expressed as following: If the hindlimbs are consistently splayed outward, away from the abdomen, it is assigned a score of 0. If one hindlimb is retracted toward the abdomen for more than 50% of the time suspended, it receives a score of 1. If both hindlimbs are partially retracted toward the abdomen for more than 50% of the time suspended, it receives a score of 2. If its hindlimbs are entirely retracted and touching the abdomen for more than 50% of the time suspended, it receives a score of 3. Data are expressed in scores. B and C: N=8-14 per group. Two-way analysis of variance (ANOVA) followed by Tukey post-hoc tests. *P<0.05, **P<0.01, ***P<0.001.
FIG. 6. PnM6P reverses memory and motor deficits in AS mice. Experimental timelines are shown above graphs. […] Data are expressed as the % mean±s.e.m. […]

For experiment [1], the system named is Ube3a−/+ (AS) mice. Briefly: Novel object recognition (nOR) in AS mice. It counts as in vivo. The procedure: as §1, §2
FIG. 6. PnM6P reverses memory and motor deficits in AS mice. Experimental timelines are shown above graphs. In all experiments mice received a s.c. injection of either vehicle or 850 μg/Kg of phosphonate-M6P (PnM6P) called IGF-2R.L2 (or L2) (↑) 20 min before either training or testing. (A) Percent exploration preference for a novel object compared to a familiar object during the nOR paradigm of WT (Control) and Ube3a−/+ (AS) mice injected with vehicle or L2 before training, and tested at 4 h, 24 h and 5 days (5 d) after training. N=4/group. Data are expressed as the % mean±s.e.m. (B). […]

The subject of experiment [2] is Ube3a−/+ (AS) mice. As to the kind of experiment: Hindlimb clasping in AS mice. It counts as in vivo. The following applies: 850 μg/kg s.c. 20 min before test. The method, then:
as §2, with “If both hindlimbs are partially retracted toward the abdomen for more than 50% of the time suspended, it receives a score of 2. If its hindlimbs are entirely retracted and touching the abdomen for more than 50% of the time suspended, it receives a score of 3. Data are expressed in scores. B and C: N=8-14 per group. Two-way analysis of variance (ANOVA) followed by Tukey post-hoc tests. *P<0.05, **P<0.01, ***P<0.001.” left out
(§3) FIG. 6. […] Data are expressed as the % mean±s.e.m. […]
L2 injection reversed motor deficits as measured by hindlimb clasping.

Experiment [3] concerns Ube3a−/+ (AS) mice. As to the kind of experiment: Spontaneous alternation in three-arm Y-maze in AS mice. The note with it: s.c. injection 20 min before test (M6P 850 μg/kg). The class given is in vivo. The method, then: as §1, with “(D) Latency to fall off from a rotating rod by WT and Ube3a−/+ mice injected with vehicle or IGF-2, 20 min before Test, and tested again 3 and 7 days later. (E) Time spent burying marbles by WT and Ube3a−/+ mice injected with vehicle or IGF-2, 20 min before Test. (F) Time spent in the center of an open field by WT and Ube3a−/+ mice following a vehicle or IGF-2 injection given 20 min before Test. The bars for each set from left to right are: WT Vehicle, WT IGF-2, Ube3a−/+ Vehicle, and Ube3a−/+ IGF-2.” left out
FIG. 5. […] Data are expressed as the mean±s.e.m. […] Data are expressed as the mean (±s.e.m.). […] Hindlimb clasping scores are measured and expressed as following: If the hindlimbs are consistently splayed outward, away from the abdomen, it is assigned a score of 0. […]

The target of a further experiment is IGF-2 receptor (Homo sapiens, UniProt P11717). The following applies: cited from earlier work.
Sequence of IGF-2 receptor (P11717 41-2491): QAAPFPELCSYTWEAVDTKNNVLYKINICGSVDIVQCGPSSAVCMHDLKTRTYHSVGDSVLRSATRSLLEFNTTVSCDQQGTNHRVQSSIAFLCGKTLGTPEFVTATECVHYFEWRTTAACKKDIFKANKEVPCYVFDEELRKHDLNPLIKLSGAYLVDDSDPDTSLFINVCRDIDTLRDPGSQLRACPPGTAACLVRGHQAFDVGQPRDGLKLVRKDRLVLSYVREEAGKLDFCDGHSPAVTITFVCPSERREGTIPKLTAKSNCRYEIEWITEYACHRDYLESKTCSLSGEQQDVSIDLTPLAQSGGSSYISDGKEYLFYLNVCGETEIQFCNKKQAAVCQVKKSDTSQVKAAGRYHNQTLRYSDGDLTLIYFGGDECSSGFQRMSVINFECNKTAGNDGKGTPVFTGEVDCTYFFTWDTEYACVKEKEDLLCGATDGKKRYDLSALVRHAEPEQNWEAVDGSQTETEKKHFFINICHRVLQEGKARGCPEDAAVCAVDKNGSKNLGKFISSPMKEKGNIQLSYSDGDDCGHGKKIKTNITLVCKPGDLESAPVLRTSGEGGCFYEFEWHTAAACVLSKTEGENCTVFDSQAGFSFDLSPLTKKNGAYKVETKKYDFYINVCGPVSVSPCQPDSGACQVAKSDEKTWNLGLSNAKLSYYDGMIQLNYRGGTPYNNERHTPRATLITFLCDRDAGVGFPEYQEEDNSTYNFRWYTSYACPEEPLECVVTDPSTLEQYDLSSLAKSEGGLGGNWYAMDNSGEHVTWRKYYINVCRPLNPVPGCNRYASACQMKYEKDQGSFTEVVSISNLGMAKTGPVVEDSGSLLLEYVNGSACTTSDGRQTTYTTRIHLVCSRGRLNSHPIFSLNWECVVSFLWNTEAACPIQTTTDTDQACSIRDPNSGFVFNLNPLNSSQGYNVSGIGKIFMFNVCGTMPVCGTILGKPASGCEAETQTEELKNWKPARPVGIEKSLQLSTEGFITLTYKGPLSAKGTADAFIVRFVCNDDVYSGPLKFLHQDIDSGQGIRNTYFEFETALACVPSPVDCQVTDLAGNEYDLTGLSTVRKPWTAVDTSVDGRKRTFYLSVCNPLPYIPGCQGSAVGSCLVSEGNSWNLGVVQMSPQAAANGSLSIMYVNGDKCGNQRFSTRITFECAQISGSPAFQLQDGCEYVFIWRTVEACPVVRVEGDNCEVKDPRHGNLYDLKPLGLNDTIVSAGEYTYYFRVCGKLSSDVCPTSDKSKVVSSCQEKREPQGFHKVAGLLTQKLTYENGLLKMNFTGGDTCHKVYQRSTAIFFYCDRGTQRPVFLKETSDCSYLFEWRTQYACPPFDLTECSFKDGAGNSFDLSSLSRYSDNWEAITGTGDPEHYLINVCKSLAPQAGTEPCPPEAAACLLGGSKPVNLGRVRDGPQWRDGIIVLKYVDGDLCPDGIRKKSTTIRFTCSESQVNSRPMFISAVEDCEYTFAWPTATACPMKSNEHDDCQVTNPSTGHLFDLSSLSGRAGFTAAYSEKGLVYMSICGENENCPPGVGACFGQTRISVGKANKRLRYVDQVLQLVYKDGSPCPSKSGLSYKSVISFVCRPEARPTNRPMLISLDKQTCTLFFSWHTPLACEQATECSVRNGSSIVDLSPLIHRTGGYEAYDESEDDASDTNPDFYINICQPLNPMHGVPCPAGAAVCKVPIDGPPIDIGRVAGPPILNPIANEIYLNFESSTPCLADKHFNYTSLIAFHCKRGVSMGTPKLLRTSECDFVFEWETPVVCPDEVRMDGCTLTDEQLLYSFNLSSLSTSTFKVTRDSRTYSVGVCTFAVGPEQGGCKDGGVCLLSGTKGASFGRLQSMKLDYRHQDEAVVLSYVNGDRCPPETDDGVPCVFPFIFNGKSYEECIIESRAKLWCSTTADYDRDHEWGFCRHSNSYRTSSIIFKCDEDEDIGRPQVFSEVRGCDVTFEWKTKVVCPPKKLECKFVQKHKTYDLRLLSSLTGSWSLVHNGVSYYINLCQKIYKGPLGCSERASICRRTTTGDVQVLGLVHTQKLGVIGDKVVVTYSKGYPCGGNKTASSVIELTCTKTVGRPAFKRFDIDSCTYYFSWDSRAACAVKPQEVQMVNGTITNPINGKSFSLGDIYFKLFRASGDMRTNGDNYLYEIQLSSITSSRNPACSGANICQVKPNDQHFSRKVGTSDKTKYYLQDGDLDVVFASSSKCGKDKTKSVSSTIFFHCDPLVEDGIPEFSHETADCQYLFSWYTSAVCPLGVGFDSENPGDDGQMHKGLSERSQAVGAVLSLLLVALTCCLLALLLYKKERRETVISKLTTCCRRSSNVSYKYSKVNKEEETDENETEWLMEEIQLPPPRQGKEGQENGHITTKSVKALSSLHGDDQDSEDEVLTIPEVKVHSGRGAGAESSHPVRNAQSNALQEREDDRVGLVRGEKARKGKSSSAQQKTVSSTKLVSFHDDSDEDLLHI
Experiment [4] concerns Ube3a−/+ (AS) mice. Briefly: RotaRod test (accelerating rotating rod) in AS mice. It counts as in vivo. The following applies: s.c. injection 20 min before test (L2 850 μg/kg). The procedure:
as §1, with “(D) Latency to fall off from a rotating rod by WT and Ube3a−/+ mice injected with vehicle or IGF-2, 20 min before Test, and tested again 3 and 7 days later. (E) Time spent burying marbles by WT and Ube3a−/+ mice injected with vehicle or IGF-2, 20 min before Test. (F) Time spent in the center of an open field by WT and Ube3a−/+ mice following a vehicle or IGF-2 injection given 20 min before Test. The bars for each set from left to right are: WT Vehicle, WT IGF-2, Ube3a−/+ Vehicle, and Ube3a−/+ IGF-2.” left out
as §3
AS is also associated with robust motor impairments, which again are reproduced in the AS mice. Motor coordination and ability is reliably assessed in mice by placing them on an accelerating rotating rod (RotaRod test). […]
For orientation: In the rotarod test animals must keep their balance on a rotating rod.

The subject of experiment [5] is Ube3a−/+ (AS) mice. As to the kind of experiment: Open field (center entry, anxiety-like behavior) in AS mice. The note with it: s.c. injection 20 min before test. It counts as in vivo. The method, then:
as §1, with “(D) Latency to fall off from a rotating rod by WT and Ube3a−/+ mice injected with vehicle or IGF-2, 20 min before Test, and tested again 3 and 7 days later. (E) Time spent burying marbles by WT and Ube3a−/+ mice injected with vehicle or IGF-2, 20 min before Test. (F) Time spent in the center of an open field by WT and Ube3a−/+ mice following a vehicle or IGF-2 injection given 20 min before Test. The bars for each set from left to right are: WT Vehicle, WT IGF-2, Ube3a−/+ Vehicle, and Ube3a−/+ IGF-2.” left out
To measure the effect of IGF-2 on anxiety-like behavior we employed open field and measured center entry (which measures anxiety behavior): No effect of IGF-2 treatment was found on AS mice, which remained altered compared to the behavior of normal mice (FIG. 1F).

Experiment [6] concerns Ube3a−/+ mice (mouse model of AS). Briefly: Contextual fear conditioning (CFC) in AS mice. The class given is in vivo. The note with it: s.c. injection 20 min before training, test 24 h after training. The procedure:
FIG. 1. IGF-2 reverses most behavioral deficits observed in a mouse model of AS. Experimental timelines are shown above graphs. In all experiments mice received a s.c. injection of either vehicle or IGF-2 (↑) 20 min before either training or testing. All data are expressed as the mean±s.e.m. N=8-12 per group. Two-way analysis of variance (ANOVA) followed by Bonferroni post-hoc tests. *P<0.05, **P<0.01, ***P<0.001. (A) Percentage of time spent freezing before (Pre-US) or after (Post-US) the shock delivery during contextual fear conditioning training and at testing at 24 hours (h) after training (Test) of normal mice (wild type, WT), which served as controls and Ube3a−/+ mice (mouse model of AS, also referred to as mice) injected with vehicle or IGF-2. (B) Percent exploration preference for a novel object compared to a familiar object during novel object recognition of WT and Ube3a−/+ mice injected with vehicle or IGF-2, 20 min before training, tested at 4 h and 24 h after training. […]
As measures of learning/cognitive responses, which are known to be altered in Angelman Syndrome (AS), we tested different types of aversive and non-aversive memories. […] We tested memory retention one day later (a time that is used to measure long-term memory) by placing mice back in the same chamber and measured their fear-related (freezing) behavior.

The subject of experiment [7] is Ube3a−/+ (AS) mice. As to the kind of experiment: Marble-burying test in AS mice. It counts as in vivo. The following applies: s.c. injection 20 min before test. The method, then:
as §1, with “(F) Time spent in the center of an open field by WT and Ube3a−/+ mice following a vehicle or IGF-2 injection given 20 min before Test. The bars for each set from left to right are: WT Vehicle, WT IGF-2, Ube3a−/+ Vehicle, and Ube3a−/+ IGF-2.” left out

The mark [8] stands for this setting: s.c. injection 20 min before training (M6P and L2 850 μg/kg), test 24 h after training.
[9] abbreviates: s.c. injection 20 min before training (M6P and L2 850 μg/kg), test 4 h after training.
Setting [10] is: L2 850 μg/kg s.c. before training, 5 d test.

With `O=P(O)(O)OCC1OC(O)C(O)C(O)C1O` (stereo not drawn) [M6P, mannose-6-phosphate], the “Exploration preference for novel object (nOR memory)” value (“Exploration preference” below) is reported as “significant memory retention” in the experiment on WT (Control) mice (setting [8]), “reversed memory deficits in AS mice” in the experiment on Ube3a−/+ (AS) mice [1] (setting [9]) and “significant memory retention” in the experiment on Ube3a−/+ (AS) mice [1] (setting [8]). Moreover, in the experiment with Ube3a−/+ (AS) mice [2], the “Hindlimb clasping score (motor deficit)” value is listed as “significantly reduced hind limb clasping”. Also, the “Correct alternations in Y-maze (exploratory strategy/working memory)” value in the experiment with Ube3a−/+ (AS) mice [3] is “completely reversed the deficit”. Moreover, the Kd on IGF-2 receptor (one of the two known binding sites, Olson et al., J. Biol. Chem. 2004, read-out: Affinity for IGF-2 receptor) was ~1 nM; at IGF-2 receptor (other of the two known binding sites, Olson et al., J. Biol. Chem. 2004, read-out: Affinity for IGF-2 receptor) it was ~1000 nM.
Consider `COC1OC(CCP(=O)(OCOC(=O)OC(C)C)OCOC(=O)OC(C)C)C(O)C(O)C1O` [L2, Methyl 6-Deoxy-6-diisopropyloxycarbonyloxy-methyl-phosphinylmethyl-α-D-mannopyranoside], for which the “Exploration preference” value is “none of the groups (vehicle or L2 injected) showed significant memory” in the experiment on WT (Control) mice (setting [10]); “significantly enhanced nOR memory retention in WT mice” with WT (Control) mice (s.c. injection 20 min before training (L2 850 μg/kg), test 4 h after training); “showed significant memory compared to vehicle-injected groups” in the experiment with WT (Control) mice (setting [8]); “none of the groups (vehicle or L2 injected) showed significant memory” in the experiment with Ube3a−/+ (AS) mice [1] (setting [10]); “significantly reversed the deficit of AS mice in nOR” in the experiment with Ube3a−/+ (AS) mice [1] (setting [9]); “showed significant memory compared to vehicle-injected groups” with Ube3a−/+ (AS) mice [1] (setting [8]). The “Hindlimb clasping score (motor deficit)” value in the experiment on Ube3a−/+ (AS) mice [2] is reported as “returned their hindlimb clasping behavior to control levels”. Moreover, in the experiment with Ube3a−/+ (AS) mice [4], the “Latency to fall off rotating rod (motor ability)” value is “significantly improved their motor ability on the RotaRod”.
As for “IGF-2: insulin-like growth factor 2 (IGF-2 or IGF-II), IGF-2 receptor agonist ligand”, the “Open field center entry (anxiety-like behavior)” value in the experiment with Ube3a−/+ (AS) mice [5] is given as “No effect”. The “Exploration preference” value in the experiment on WT (Control) mice (setting [8]) is “significant preference for a novel object”; in the experiment on Ube3a−/+ (AS) mice [1] (setting [9]) it was “completely reversed the memory deficits of AS mice”; in the experiment on Ube3a−/+ (AS) mice [1] (setting [8]) it was “significant preference for a novel object”. Further, in experiment [6], the “Freezing (long-term memory retention) in contextual fear conditioning” value is listed as “completely reversed the memory impairment of AS mice”. Further, in the experiment with Ube3a−/+ (AS) mice [7], the “Marble burying (time spent burying)” value is “rescued the deficits of the AS mice”. Moreover, the “Correct alternations in Y-maze (exploratory strategy/working memory)” value with Ube3a−/+ (AS) mice [3] is recorded as “reverses the repetitive, inflexible behavior”. The “Latency to fall off rotating rod (motor ability)” value in the experiment with Ube3a−/+ (AS) mice [4] was “significant improvement in motor ability”. In the experiment with IGF-2 receptor (Williams et al., Science 2012, read-out: Kd for IGF-2 receptor), the Kd is 40 to 60 nM.
